Laboratory results reported in patent US10562895B2, “Pyrroloquinoline quinone B crystal form and preparation method therefor” (ZHUCHENG HAOTIAN PHARM CO., LTD, priority 2015, dated 2020).

Test: hygroscopicity analysis (DVS)
Type: physicochemical
Excerpt: The crystal form B of pyrroloquinoline quinone provided by the present invention is characterized by solid-state methods, such as an X-ray powder diffraction (XRPD), a thermogravimetric analysis (TG), a differential scanning calorimetry analysis (DSC), an infrared (IR) analysis, and a hygroscopicity analysis (DVS). A solid sample of the crystal form B of pyrroloquinoline quinone obtained in Example 1 was subjected to a hygroscopicity analysis.

- hygroscopicity (solid sample obtained in Example 1, FIG. 5): low hygroscopicity
SMILES: O=C(O)c1cc(C(=O)O)c2c(n1)C(=O)C(=O)c1cc(C(=O)O)[nH]c1-2 [4,5-Dihydro-4,5-dioxo-1H-pyrrolo[2,3-f]quinoline-2,7,9-tricarboxylic acid]
- water adsorption / solid form change (at a relative humidity of 85-95%, FIG. 5): adsorbed a molecule of water and was converted into a monohydrate compound
